Measurements taken from PubChem BioAssay AID330 (DTP/NCI, 2004).
Where “and” joins values, the source holds several entries; their conditions need not be identical. Equal entries are not always repeated. Inconclusive results and toxic doses are left out.

System: P388 leukemia ip, CD2F1 mice, survival T/C
Assay: NCI In Vivo Anticancer Drug Screen. Data for tumor model P388 Leukemia (intraperitoneal) in CD2F1 (CDF1) mice
Conditions: endpoint: median survival time, higher = longer survival
Summary of the method: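 Mice carrying the transplanted tumor received test compound or vehicle. Survival was recorded in each group, and the value is the treated-group measurement divided by that of the vehicle-treated control group.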

[1] = dose: 100.0 mg/kg/injection, schedule: Q01DX009 (ip), vehicle: saline with Tween-80
[2] = dose: 200.0 mg/kg/injection, schedule: Q01DX009 (ip), vehicle: saline with Tween-80
[3] = dose: 100.0 mg/kg/injection, schedule: Q04DX003 (ip), vehicle: Klucel (hydroxypropylcellulose) (HPC)
[4] = dose: 200.0 mg/kg/injection, schedule: Q04DX003 (ip), vehicle: Klucel (hydroxypropylcellulose) (HPC)
[5] = dose: 50.0 mg/kg/injection, schedule: Q01DX005 (ip), vehicle: Klucel (hydroxypropylcellulose) (HPC)
[6] = dose: 100.0 mg/kg/injection, schedule: Q01DX005 (ip), vehicle: Klucel (hydroxypropylcellulose) (HPC)
[7] = dose: 200.0 mg/kg/injection, schedule: Q01DX005 (ip), vehicle: Klucel (hydroxypropylcellulose) (HPC)

## CN(C)c1ccc(C2(c3ccccc3)NNC(=O)c3ccccc32)cc1 (centres undefined)
dose: 12.5 mg/kg/injection, schedule: Q01DX005 (ip), vehicle: saline with Tween-80
  T/C: 92 % of control
dose: 25.0 mg/kg/injection, schedule: Q01DX005 (ip), vehicle: saline with Tween-80
  T/C: 88 % of control
dose: 50.0 mg/kg/injection, schedule: Q01DX005 (ip), vehicle: saline with Tween-80
  T/C: 88 % of control
dose: 200.0 mg/kg/injection, schedule: Q01DX005 (ip), vehicle: saline with Tween-80
  T/C: 86 % of control

## CCCCCCC(/C=C/c1c(Cl)cccc1Cl)=N\O
dose: 25.0 mg/kg/injection, schedule: Q01DX009 (ip), vehicle: saline with Tween-80
  T/C: 98 % of control
dose: 50.0 mg/kg/injection, schedule: Q01DX009 (ip), vehicle: saline with Tween-80
  T/C: 100 % of control
[1]
  T/C: 99 % of control and 109 % of control
[2]
  T/C: 101 % of control
dose: 400.0 mg/kg/injection, schedule: Q01DX009 (ip), vehicle: saline with Tween-80
  T/C: 118 % of control

## CCOP(O)(=S)OCC.[Yb]
[3]
  T/C: 96 % of control
[4]
  T/C: 99 % of control
dose: 400.0 mg/kg/injection, schedule: Q04DX003 (ip), vehicle: Klucel (hydroxypropylcellulose) (HPC)
  T/C: 90 % of control

## OC1CCc2ncccc2O1 (centres undefined)
dose: 50.0 mg/kg/injection, schedule: Q01DX009 (ip), vehicle: saline
  T/C: 102 % of control
dose: 100.0 mg/kg/injection, schedule: Q01DX009 (ip), vehicle: saline
  T/C: 102 % of control
dose: 200.0 mg/kg/injection, schedule: Q01DX009 (ip), vehicle: saline
  T/C: 102 % of control

## CC(C)CCCC(C)Cc1cc(CC(C)CCCC(C)C)n(C)n1 (centres undefined)
dose: 25.0 mg/kg/injection, schedule: Q01DX005 (ip), vehicle: Klucel (hydroxypropylcellulose) (HPC)
  T/C: 108 % of control and 109 % of control and 97 % of control
[5]
  T/C: 102 % of control and 109 % of control and 96 % of control
[6]
  T/C: 101 % of control and 105 % of control and 111 % of control
[7]
  T/C: 108 % of control and 121 % of control and 96 % of control
dose: 400.0 mg/kg/injection, schedule: Q01DX005 (ip), vehicle: Klucel (hydroxypropylcellulose) (HPC)
  T/C: 100 % of control

## O=C(O)COc1ccc2ccccc2c1
[1]
  T/C: 90 % of control
dose: 100.0 mg/kg/injection, schedule: Q04DX003 (ip), vehicle: saline with Tween-80
  T/C: 100 % of control
[2]
  T/C: 100 % of control
dose: 200.0 mg/kg/injection, schedule: Q04DX003 (ip), vehicle: saline with Tween-80
  T/C: 110 % of control

## COc1cccc2c1C(=O)c1c(O)c3c(c(O)c1C2=O)C[C@@](O)(C(C)O)C[C@@H]3OC1CC(N)C(O)C(C)O1 (some centres undefined)
dose: 1.08 mg/kg/injection, schedule: Q01DX009 (ip), vehicle: saline
  T/C: 168 % of control
dose: 1.8 mg/kg/injection, schedule: Q01DX009 (ip), vehicle: saline
  T/C: 163 % of control and 172 % of control
dose: 3.0 mg/kg/injection, schedule: Q01DX009 (ip), vehicle: saline
  T/C: 159 % of control and 173 % of control
dose: 3.0 mg/kg/injection, schedule: Q04DX003 (ip), vehicle: saline
  T/C: 150 % of control
dose: 5.0 mg/kg/injection, schedule: Q01DX009 (ip), vehicle: saline
  T/C: 173 % of control and 195 % of control
dose: 5.0 mg/kg/injection, schedule: Q04DX003 (ip), vehicle: saline
  T/C: 154 % of control
dose: 8.0 mg/kg/injection, schedule: Q01DX001 (ip), vehicle: saline
  T/C: 154 % of control
dose: 8.0 mg/kg/injection, schedule: Q01DX009 (ip), vehicle: saline
  T/C: 150 % of control
dose: 8.0 mg/kg/injection, schedule: Q04DX003 (ip), vehicle: saline
  T/C: 163 % of control
dose: 13.3 mg/kg/injection, schedule: Q01DX009 (ip), vehicle: saline
  T/C: 90 % of control
dose: 13.3 mg/kg/injection, schedule: Q04DX003 (ip), vehicle: saline
  T/C: 172 % of control
dose: 22.2 mg/kg/injection, schedule: Q01DX001 (ip), vehicle: saline
  T/C: 181 % of control
dose: 37.0 mg/kg/injection, schedule: Q01DX001 (ip), vehicle: saline
  T/C: 163 % of control
dose: 37.0 mg/kg/injection, schedule: Q04DX003 (ip), vehicle: saline
  T/C: 100 % of control
dose: 61.7 mg/kg/injection, schedule: Q01DX001 (ip), vehicle: saline
  T/C: 90 % of control

## CNC(=O)c1ccccc1NC(=O)c1ccccc1N=[N+]=[N-]
[5]
  T/C: 100 % of control
[6]
  T/C: 100 % of control
[7]
  T/C: 98 % of control

## [O-]c1n[n+](Cc2ccc(Cl)cc2)no1
[3]
  T/C: 102 % of control
[4]
  T/C: 119 % of control
